Test results: US12428423B2, “1H-imidazo[4,5-h]quinazoline compound as protein kinase inhibitor” (SHENGKE PHARMACEUTICALS (JIANGSU) LTD., priority 2017, dated 2025)
Structures can show the parent of a compound that is named as a salt.

Columns and labels:
CDK4/cyclin D1 = CDK4/cyclin D1 (Homo sapiens (Human), UniProt P11802); assay: Biochemical kinase inhibitory assay, CDK4/cyclin D1; conditions: recombinant CDK4/cyclin D1; in the presence of 10 μM ATP
Method: Potency determination in the biochemical kinase inhibitory assay. Kinase activity assay and IC50 determination. […] The kinase reaction was initiated by the addition of 1 μg (1.5 μM) of recombinant retinoblastoma protein, 5 μM ATP and 10μ Ci γ-32P-ATP. The reaction was incubated at 30° C. for 20 minutes, and the reaction was stopped by the addition of 2× Laemmli sample buffer, heated at 95° C. for three minutes, and dissolved in 12% acrylamide SDS-PAGE for autoradiography. The corresponding phosphorylated substrate protein bands were quantified using a densitometer (Bio-Rad). […] The reaction took place in the presence of 10 μM ATP.

CDK6/cyclin D1 = CDK6/cyclin D1 (Homo sapiens (Human), UniProt Q00534); assay: Biochemical kinase inhibitory assay, CDK6/cyclin D1; conditions: in the presence of 10 μM ATP
Chain of CDK6/cyclin D1 (Q00534 whole entry): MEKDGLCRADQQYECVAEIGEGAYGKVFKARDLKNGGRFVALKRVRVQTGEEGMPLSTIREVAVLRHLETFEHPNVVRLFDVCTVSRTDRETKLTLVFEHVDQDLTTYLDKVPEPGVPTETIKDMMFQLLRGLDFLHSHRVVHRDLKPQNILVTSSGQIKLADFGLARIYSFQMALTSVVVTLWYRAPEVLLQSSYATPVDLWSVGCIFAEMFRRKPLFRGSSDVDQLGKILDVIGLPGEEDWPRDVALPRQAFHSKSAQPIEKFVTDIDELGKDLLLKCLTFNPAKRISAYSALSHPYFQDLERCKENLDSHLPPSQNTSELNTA
Chain of CDK6/cyclin D1 (P24385 whole entry partner): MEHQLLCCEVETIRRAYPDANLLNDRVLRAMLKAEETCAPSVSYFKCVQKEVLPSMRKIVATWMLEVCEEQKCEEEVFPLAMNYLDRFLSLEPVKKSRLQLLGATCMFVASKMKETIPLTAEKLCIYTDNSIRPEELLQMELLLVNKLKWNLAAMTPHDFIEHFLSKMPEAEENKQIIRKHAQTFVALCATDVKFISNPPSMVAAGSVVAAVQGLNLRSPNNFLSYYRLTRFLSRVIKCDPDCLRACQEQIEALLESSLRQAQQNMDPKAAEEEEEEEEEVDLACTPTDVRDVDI
Method: Potency determination in the biochemical kinase inhibitory assay. Kinase activity assay and IC50 determination. […] The kinase reaction was initiated by the addition of 1 μg (1.5 μM) of recombinant retinoblastoma protein, 5 μM ATP and 10μ Ci γ-32P-ATP. The reaction was incubated at 30° C. for 20 minutes, and the reaction was stopped by the addition of 2× Laemmli sample buffer, heated at 95° C. for three minutes, and dissolved in 12% acrylamide SDS-PAGE for autoradiography. The corresponding phosphorylated substrate protein bands were quantified using a densitometer (Bio-Rad). […] The compounds disclosed herein were tested in a similar manner for their inhibitory activities against CDK6/cyclin D1, CDK2/cyclin A, CDK5/cyclin P25, CDK9/cyclin Ti, CDK7/cyclin H and CDK19/cyclin C. […] The reaction took place in the presence of 10 μM ATP.

neointimal formation = conditions: rats; cited from earlier work

Chain of CDK4/cyclin D1 (P11802 whole entry): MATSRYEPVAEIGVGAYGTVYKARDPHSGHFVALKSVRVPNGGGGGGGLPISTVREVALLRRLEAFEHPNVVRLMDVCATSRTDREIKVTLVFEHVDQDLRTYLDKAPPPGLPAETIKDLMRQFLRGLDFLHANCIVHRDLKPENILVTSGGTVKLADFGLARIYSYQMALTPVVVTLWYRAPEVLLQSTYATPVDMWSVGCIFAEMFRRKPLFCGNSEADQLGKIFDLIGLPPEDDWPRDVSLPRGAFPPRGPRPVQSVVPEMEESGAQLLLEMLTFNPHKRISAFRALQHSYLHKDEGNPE
Chain of CDK4/cyclin D1 (P24385 whole entry partner): as the sequence (P24385 whole entry partner) above

Structure (SMILES)	IC50 (CDK4/cyclin D1) [nM]	IC50 (CDK6/cyclin D1) [nM]	inhibition of neointimal formation (neointimal formation)
CC(C)n1cnc2ccc3cnc(Nc4ccc(N5CCC6(CCNCC6)C5)cn4)nc3c21 [Compound I-28]	10 to 50	10 to 50	
COc1cc(C(=O)NC2CCN(C)CC2)ccc1Nc1ncc2ccc3ncn(C(C)C)c3c2n1 [Compound I-40]	50 to 100	50 to 100	
c1cc(Nc2ncc3ccc4ncn(C5CCCC5)c4c3n2)ncc1N1CCNCC1 [Compound I-57]	< 2	< 2	
CC(C)n1cnc2ccc3cnc(Nc4ccc(N5CCC(N(C)C)CC5)c(F)n4)nc3c21 [Compound I-20]	10 to 50	10 to 50	
COc1ccc(CNc2nc(N(CCO)CCO)nc3c2ncn3C(C)C)cc1 [CVT-313]			more than 80%
CC(C)n1cnc2ccc3cnc(Nc4ccc(N5CCC6(CC5)CNC6)cn4)nc3c21 [Compound I-31]	10 to 50	10 to 50	
Cc1nc(Nc2ncc3ccc4ncn(C(C)C)c4c3n2)ccc1N1CCNCC1 [Compound I-9]	< 2	< 2	
CC(C)n1cnc2ccc3cnc(Nc4ccc(N5CCNCC5)cn4)nc3c21 [Compound I-1, 1-Isopropyl-N-(5-(piperazin-1-yl)pyridin-2-yl)-1H-imidazo[4,5-h]quinazolin-8-amine hydrochloride]	< 2	< 2	
CC(C)n1cnc2ccc3cnc(Nc4ccc(N5C[C@@H](C)O[C@@H](C)C5)cn4)nc3c21 [Compound I-27]	2 to 10	2 to 10	
CC(C)n1cnc2ccc3cnc(Nc4ccc(N5CCC6(CNC6)C5)cn4)nc3c21 [Compound I-29]	10 to 50	10 to 50	
Cc1cc2ncn(C(C)C)c2c2nc(Nc3ccc(N4CCOCC4)cn3)ncc12 [Compound I-65]	50 to 100	50 to 100	
Cc1cc2ncn(C(C)C)c2c2nc(Nc3ccc(N4CCOC(C)C4)cn3)ncc12 (stereo not shown) [Compound I-66]	50 to 100	50 to 100	
Cc1cc(Nc2ncc3cc(Br)c4ncn(C(C)C)c4c3n2)ncc1N1CCNCC1 [Compound I-68]	2 to 10	2 to 10	
Cc1cc(Nc2ncc3ccc4ncn(C5CCC5)c4c3n2)ncc1N1CCOCC1 [Compound I-56]	10 to 50	10 to 50	
COc1ccc2cc(Nc3ncc4ccc5ncn(C(C)C)c5c4n3)ccc2n1 [Compound I-39]	50 to 100	50 to 100	
CC(C)n1cnc2c(Br)cc3cnc(Nc4ccc(N5CCNCC5)cn4)nc3c21 [Compound I-67]	2 to 10	2 to 10	
